The nature of data set [1]: Hydrolysis in the presence of human liver microsomes (HLM), with or without esterase inhibitors. Type of data set: in vitro ADME.
Procedure: Pooled plasma/serum solutions (4 ml) were prepared to the correct strength by dilution of plasma with phosphate buffer pH 7.4 (e.g. for a 10% solution 0.4 ml of plasma/serum was added to 3.6 ml of phosphate buffer pH 7.4). Following equilibration of the plasma/serum sample at 37±0.5° C. 100 μl of a stock solution of test compound in acetonitrile (1×10^−4 M) was added and 250 μl aliquots were removed at specified time intervals. Samples were transferred to 1.5 ml Eppendorf tubes containing 500 μl of a 2% w/v solution of nSO4.7H2O (water:acetonitrile, 1:1). Tubes were vortexed for 2 minutes, then centrifuged at 10,000 rpm for 3 minutes at room temperature. Supernatant was aspirated off and analysed by HPLC. The concentration of test compound and metabolites were determined with reference to calibration curves run on that day in the same concentration range and under the same experimental conditions. […] The metabolic fate of the esters under these conditions was also determined by RPHPLC by measuring the concentration of drug and metabolites in the medium as a function of time. […] The BuChE activity of plasma and microsomal samples was determined using the Ellman assay (Ellman et al., 1964). […]
The test system of data set [2] is esterases found in CACO-2 cells. The experiment in a line: Stability towards esterases found in CACO-2 cells. Type of data set: in vitro ADME.
Another data set concerns GPIIb/IIIa. The experiment in a line: Flow cytometry of activated GPIIb/IIIa (PAC-1) on platelets. Type of data set: cell-based, human. The conditions noted are these: concentrations at which aspirin has no effect. As to the method: In order to analyze receptor expression on the surface of individual platelets and to minimize platelet activation caused by sample preparation procedures, no stirring or vortexing steps were used. The abundance of activated GPIIb/IIIa and P-selectin on the surface of platelets in the presence and absence of inhibitors was measured by flow cytometry. Platelet samples were first activated with agonists either collagen or ADP. When platelet aggregation reached 50% maximal light transmission the reaction was terminated by 10-fold dilution with physiologic saline. Resting platelets were used as control. In most of the experiments, platelets were preincubated with inhibitors for 10 min prior to the addition of agonists. Platelet samples were then incubated in the dark without stirring for 5 min at room temperature in the presence of saturating concentrations (10 μg/ml) of P-selectin (CD62P-APC). The activated GPIIb/IIIa platelet receptors were measured using PAC-1 monoclonal antibody at the same concentration as above. PAC-1 specifically recognizes an epitope on the high-affinity GPIIb/IIIa complex of activated platelets at or near the […]. Following incubation, samples were diluted in FACS Flow fluid and analyzed within 5 min using a BD FACSArray (BD Biosciences, Oxford, UK). Flow cytometry was performed on single stained platelet samples as described before^3. The instrument was set up to measure the size (forward scatter), granularity (side scatter) and cell fluorescence. A two-dimensional analysis gate of forward and side scatter was drawn in order to include single platelets and exclude platelet aggregates and microparticles. Antibody binding was measured by analyzing individual platelets for fluorescence. The mean fluorescence intensity was determined after correction for cell autofluorescence. For each sample, the fluorescence was analyzed using a logarithmic scale. Fluorescence histograms were obtained for 10,000 individual events. Data were analyzed using Cytometer RXP software and expressed as a percentage of control fluorescence in arbitrary units.
Background: In flow cytometry, cells or beads pass a laser one at a time.

On to `CC(=O)Oc1ccccc1C(=O)O[C@H]1CO[C@H]2[C@@H]1OC[C@H]2OC(=O)c1ccccc1O` [Compound 2, Isosorbide-2-aspirinate-5-salicylate], for which the “Drug disappearance” value in data set [1] (HLM/isoOMPA (10 uM), conc drug […]) is 10 min; in data set [1] (human, 0.1 mM, pH 7.4) it was 10 min. Moreover, the “stability towards esterases found in CACO-2 cells” value in data set [2] is given as “stable”. The “constitutive platelet glyco-protein expression” value in the data set with GPIIb/IIIa is recorded as “dampens constitutive platelet glyco-protein expression”.
